From the NIST ThermoML archive (doi:10.1016/j.jct.2018.09.037)
Where “and” joins values, the source holds several entries; their conditions need not be identical. Identical values can stand only once.

Key:
[1] = 100 kPa, Liquid, Electromagnetic levitation / mass taken directly, volume taken from sample image
[2] = xn = mol fraction of the nth substance listed; conditions: 100 kPa, Liquid, Electromagnetic levitation / mass taken directly, volume taken from sample image

[Cu] [copper]
[1]
Conditions | mass density [kg/m3]
1371 K | 7884
1385 K | 7849
1400 K | 7875
1432 K | 7821
1435 K | 7819
1437 K | 7806
1441 K | 7827
1456 K | 7799
1460 K | 7828
1461 K | 7826
1489 K | 7770
1507 K | 7792
1510 K | 7755
1578 K | 7716
1624 K | 7673
1625 K | 7665
1679 K | 7628

[Cu] [copper] + [Pd]
[2], x2 = 0
Conditions | mass density [kg/m3]
1371 K | 7884
1385 K | 7849
1400 K | 7875
1432 K | 7821
1435 K | 7819
1437 K | 7806
1441 K | 7827
1456 K | 7799
1460 K | 7828
1461 K | 7826
1489 K | 7770
1507 K | 7792
1510 K | 7755
1578 K | 7716
1624 K | 7673
1625 K | 7665
1679 K | 7628

[Pd] [palladium]
[1]
Conditions | mass density [kg/m3]
1790 K | 10670
1795 K | 10672
1796 K | 10652
1802 K | 10686
1809 K | 10670
1820 K | 10677
1831 K | 10627
1843 K | 10654
1856 K | 10601
1878 K | 10558
1889 K | 10592
1890 K | 10575
1917 K | 10529
1935 K | 10478
1951 K | 10465

[Pd] [palladium] + [Cu]
[2]
Conditions | mass density [kg/m3]
1374 K, x1 = 0.25 | 8847
1421 K, x1 = 0.25 | 8805
1469 K, x1 = 0.25 | 8762
1523 K, x1 = 0.25 | 8711
1523 K, x1 = 0.5 | 9468
1532 K, x1 = 0.5 | 9456
1562 K, x1 = 0.5 | 9412
1590 K, x1 = 0.25 | 8663
1617 K, x1 = 0.5 | 9371
1653 K, x1 = 0.5 | 9329
1654 K, x1 = 0.75 | 9987
1662 K, x1 = 0.5 | 9329
1678 K, x1 = 0.75 | 9964
1685 K, x1 = 0.25 | 8540
1708 K, x1 = 0.75 | 9936
1718 K, x1 = 0.5 | 9281
1753 K, x1 = 0.75 | 9886
1766 K, x1 = 0.5 | 9221
1784 K, x1 = 0.75 | 9853
1790 K, x1 = 1 | 10670
1795 K, x1 = 1 | 10672
1796 K, x1 = 1 | 10652
1802 K, x1 = 1 | 10686
1805 K, x1 = 0.5 | 9118
1809 K, x1 = 1 | 10670
1820 K, x1 = 1 | 10677
1822 K, x1 = 0.75 | 9805
1831 K, x1 = 1 | 10627
1843 K, x1 = 1 | 10654
1856 K, x1 = 1 | 10601
1857 K, x1 = 0.75 | 9728
1878 K, x1 = 1 | 10558
1889 K, x1 = 1 | 10592
1890 K, x1 = 1 | 10575
1917 K, x1 = 1 | 10529
1935 K, x1 = 1 | 10478
1951 K, x1 = 1 | 10465

[Pd] [palladium] + [Ni]
[2]
Conditions | mass density
1474 K, x1 = 0.25 | 8842 kg/m3
1480 K, x1 = 0.5 | 9527 kg/m3
1488 K, x1 = 0.5 | 9518 kg/m3
1510 K, x1 = 0.25 | 8793 kg/m3
1513 K, x1 = 0.5 | 9495 kg/m3
1549 K, x1 = 0.5 | 9457 kg/m3 and 9456 kg/m3
1551 K, x1 = 0.25 | 8757 kg/m3
1563 K, x1 = 0.75 | 10175 kg/m3
1586 K, x1 = 0.5 | 9422 kg/m3
1589 K, x1 = 0.75 | 10157 kg/m3
1598 K, x1 = 0.75 | 10153 kg/m3
1611 K, x1 = 0.25 | 8707 kg/m3
1619 K, x1 = 0.75 | 10117 kg/m3
1630 K, x1 = 0.5 | 9386 kg/m3
1653 K, x1 = 0.75 | 10089 kg/m3
1668 K, x1 = 0.25 | 8661 kg/m3
1695 K, x1 = 0.5 | 9341 kg/m3
1701 K, x1 = 0.75 | 10023 kg/m3
1757 K, x1 = 0.25 | 8586 kg/m3
1770 K, x1 = 0.5 | 9275 kg/m3
1774 K, x1 = 0.75 | 9966 kg/m3
1790 K, x1 = 1 | 10670 kg/m3
1795 K, x1 = 1 | 10672 kg/m3
1796 K, x1 = 1 | 10652 kg/m3
1802 K, x1 = 1 | 10686 kg/m3
1809 K, x1 = 1 | 10670 kg/m3
1820 K, x1 = 1 | 10677 kg/m3
1831 K, x1 = 1 | 10627 kg/m3
1835 K, x1 = 0.75 | 9929 kg/m3
1843 K, x1 = 1 | 10654 kg/m3
1856 K, x1 = 1 | 10601 kg/m3
1859 K, x1 = 0.5 | 9186 kg/m3
1870 K, x1 = 0.25 | 8503 kg/m3
1878 K, x1 = 1 | 10558 kg/m3
1889 K, x1 = 1 | 10592 kg/m3
1890 K, x1 = 1 | 10575 kg/m3
1905 K, x1 = 0.75 | 9819 kg/m3
1917 K, x1 = 1 | 10529 kg/m3
1935 K, x1 = 1 | 10478 kg/m3
1951 K, x1 = 1 | 10465 kg/m3
